Source: patent US10322118B2, “Compounds and methods for inhibiting Cif virulence factor” (priority 2012, dated 2019)
Where a name gives a salt, the structure may show the parent alone.

Tests used:
Cif [1] = biological target: T1, Cif (Pseudomonas aeruginosa (strain UCBPP-PA14), UniProt A0A0H2ZD27); test: Primary high throughput screen with fluorogenic substrate CMNGC; type: biochemical; conditions: primary screen; test compounds at 10 μM, 1 μM Cif, 25 μM CMNGC, 60 minutes;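 also: fluorescence of 200 µL reactions in 96-well plates read on a plate reader, inhibitor at tenfold molar excess over Cif enzyme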
Cif [2] = biological target: T1, Cif; test: Secondary screen (sextuplicate) with fluorogenic substrate CMNGC; type: biochemical; conditions: for % Inhibition, Mean ± SD / % Inhibition, plate 1 / % Inhibition, plate 2 / % Inhibition, plate 3 / % Inhibition, plate 4 / % Inhibition, plate 5 / % Inhibition, plate 6: secondary screen, 10 μM; for % Inhibition, Mean ± SD: mean of six plates; for % Inhibition, plate 1: plate number 1; for % Inhibition, plate 2: plate number 2; for % Inhibition, plate 3: plate number 3; for % Inhibition, plate 4: plate number 4; for % Inhibition, plate 5: plate number 5; for % Inhibition, plate 6: plate number 6;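 as to all read-outs here: purified enzyme assay in 96-well plates, 200 µL volume, fluorescence recorded each minute across a 60 min reaction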
[3] = read-out: % Inhibition, Mean ± SD
[4] = read-out: % Inhibition, plate 1
[5] = read-out: % Inhibition, plate 2
[6] = read-out: % Inhibition, plate 3
[7] = read-out: % Inhibition, plate 4
[8] = read-out: % Inhibition, plate 5
[9] = read-out: % Inhibition, plate 6

T1 sequence (A0A0H2ZD27 25-319 limits assumed): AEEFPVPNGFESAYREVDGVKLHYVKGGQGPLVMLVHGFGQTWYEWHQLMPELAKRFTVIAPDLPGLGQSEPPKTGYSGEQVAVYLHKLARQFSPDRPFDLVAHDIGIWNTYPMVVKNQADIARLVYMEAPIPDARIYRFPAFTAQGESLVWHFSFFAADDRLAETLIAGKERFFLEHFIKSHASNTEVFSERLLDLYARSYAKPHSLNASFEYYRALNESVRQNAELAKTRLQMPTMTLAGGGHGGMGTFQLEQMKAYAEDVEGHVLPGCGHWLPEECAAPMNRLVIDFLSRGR

| SMILES | inhibition at 10 µM (Cif [1]) | % Inhibition (Cif [1]) | % Inhibition, Mean ± SD (Cif [2]) | % Inhibition, plate 1 (Cif [2]) | % Inhibition, plate 2 (Cif [2]) | % Inhibition, plate 3 (Cif [2]) | % Inhibition, plate 4 (Cif [2]) | % Inhibition, plate 5 (Cif [2]) | % Inhibition, plate 6 (Cif [2]) | inhibition at 10 µM (Cif [2]; [3]) | inhibition at 10 µM (Cif [2]; [4]) | inhibition at 10 µM (Cif [2]; [5]) | inhibition at 10 µM (Cif [2]; [6]) | inhibition at 10 µM (Cif [2]; [7]) | inhibition at 10 µM (Cif [2]; [8]) | inhibition at 10 µM (Cif [2]; [9]) |
| --- | --- | --- | --- | --- | --- | --- | --- | --- | --- | --- | --- | --- | --- | --- | --- | --- |
| C[C@H]1O[C@H](O[C@H]2[C@H](O)[C@@H](O)[C@@H](O[C@H]3[C@H](O)[C@@H](O)C(O)O[C@@H]3CO)O[C@@H]2CO)[C@H](O)[C@@H](O)[C@@H]1N[C@H]1C=C(CO)[C@@H](O)[C@H](O)[C@H]1O (some centres unmarked) [Acarbose] | 47% | – | – | – | – | – | – | – | – | – | – | – | – | – | – | – |
| CC(=O)[C@@]12O[C@](C)(c3ccccc3)O[C@@H]1C[C@H]1[C@@H]3CCC4=CC(=O)CC[C@]4(C)[C@H]3CC[C@@]12C [Algestone acetophenide] | – | 38% | −3 ± 5% | −5% | −2% | 0% | −2% | 3% | −10% | – | – | – | – | – | – | – |
| O=C(CCCN1CCN(c2ccccn2)CC1)c1ccc(F)cc1 [Azaperone] | 79% | – | – | – | – | – | – | – | – | – | – | – | – | – | – | – |
| CN1CCCC(n2nc(Cc3ccc(Cl)cc3)c3ccccc3c2=O)CC1 (centres unmarked) [Azelastine hydrochloride] | 48% | – | – | – | – | – | – | – | – | 34 ± 4% | 30% | 31% | 33% | 34% | 42% | 30% |
| C[N+](C)(C)CC(=O)O [Betaine hydrochloride] | 33% | – | – | – | – | – | – | – | – | 13 ± 6% | 6% | 10% | 9% | 17% | 20% | 18% |
| O=C1CC2(CCCC2)CC(=O)N1CCCCN1CCN(c2ncccn2)CC1 [Buspirone hydrochloride] | 33% | – | – | – | – | – | – | – | – | -3 ± 4% | 0% | -3% | 0% | -1% | -2% | -11% |
| C[C@]12CCC(=O)C=C1C=C[C@@H]1[C@@H]2CC[C@@]2(C)[C@H]1CC[C@@]21CCC(=O)O1 [Canrenone] | 36% | – | – | – | – | – | – | – | – | 24 ± 5% | 16% | 27% | 20% | 24% | 28% | 27% |
| CO[C@@]1(NC(=O)Cc2cccs2)C(=O)N2C(C(=O)O)=C(COC(N)=O)CS[C@@H]21 [Cefoxitin sodium] | 32% | – | – | – | – | – | – | – | – | 10 ± 8% | -3% | 16% | 5% | 9% | 19% | 14% |
| CCCCCCCCCCCCCCCC[N+](C)(C)C.[Br-] [Cetrimonium bromide] | – | 44% | 2 ± 4% | 1% | −1% | −4% | 3% | 8% | 2% | – | – | – | – | – | – | – |
| Nc1nc(Cl)nc2c1ncn2[C@@H]1O[C@H](CO)[C@@H](O)[C@@H]1F [Clofarabine] | 43% | – | – | – | – | – | – | – | – | 12 ± 5% | 7% | 8% | 7% | 13% | 20% | 16% |
| CN(C)CCCN1c2ccccc2CCc2ccc(Cl)cc21 [Clomipramine hydrochloride] | 51% | – | – | – | – | – | – | – | – | 5 ± 4% | 0% | 3% | 9% | 3% | 9% | 7% |
| C[C@@H]1C[C@H]2[C@@H]3CCC4=CC(=O)C=C[C@]4(C)[C@@]3(F)[C@@H](O)C[C@]2(C)[C@H]1C(=O)CO [Desoxymetasone] | – | 66% | 39 ± 4% | 34% | 42% | 34% | 40% | 42% | 41% | – | – | – | – | – | – | – |
| COC(=O)/C=C/C(=O)OC [Dimethyl fumarate] | 36% | – | – | – | – | – | – | – | – | 5 ± 4% | 3% | -2% | 8% | 7% | 9% | 6% |
| CC1=NN(c2ccccc2)C(=O)C1 [Edaravone] | 43% | – | – | – | – | – | – | – | – | 16 ± 7% | 21% | 13% | 13% | 26% | 19% | 6% |
| CCOC(=O)[C@H](CCc1ccccc1)N[C@@H](C)C(=O)N1CCC[C@H]1C(=O)O [Enalapril maleate] | 31% | – | – | – | – | – | – | – | – | 4 ± 8% | -6% | 13% | 1% | 9% | 10% | -3% |
| C[C@]12CC[C@H]3C(=CCc4cc(O)ccc43)[C@@H]1CCC2=O [Equilin] | 71% | – | – | – | – | – | – | – | – | – | – | – | – | – | – | – |
| C[C@]12CC[C@@H]3c4ccc(O)cc4CC[C@H]3[C@@H]1CC[C@@H]2O [Estradiol] | 39% | – | – | – | – | – | – | – | – | 4 ± 5% | 4% | 5% | 5% | 6% | 8% | -6% |
| C=CCc1ccc(O)c(OC)c1 [Eugenol] | 32% | – | – | – | – | – | – | – | – | 3 ± 4% | 4% | 0% | 7% | 4% | 6% | -4% |
| Cc1c(Nc2ncccc2C(=O)O)cccc1C(F)(F)F [Flunixin meglumine] | 32% | – | – | – | – | – | – | – | – | 14 ± 5% | 13% | 15% | 14% | 18% | 19% | 4% |
| CC(=O)[C@@]1(O)CC[C@H]2[C@@H]3C[C@H](C)C4=CC(=O)C=C[C@]4(C)[C@@]3(F)[C@@H](O)C[C@@]21C [Fluorometholone] | 31% | – | – | – | – | – | – | – | – | 18 ± 2% | 18% | 15% | 19% | 16% | 21% | 16% |
| CC(O)CN1CCN(CC(=O)[O-])CCN(CC(=O)[O-])CCN(CC(=O)[O-])CC1.[Gd+3] (centres unmarked) [Gadoteridol] | – | 34% | 11 ± 5% | 7% | 3% | 10% | 13% | 16% | 15% | – | – | – | – | – | – | – |
| CC(C)Cc1ccc(C(C)C(=O)O)cc1 (centres unmarked) [Ibuprofen] | 48% | – | – | – | – | – | – | – | – | 7 ± 5% | 1% | 6% | 5% | 8% | 15% | 7% |
| CC(C(=O)O)c1cccc(C(=O)c2ccccc2)c1 (centres unmarked) [Ketoprofen] | 34% | – | – | – | – | – | – | – | – | 9 ± 5% | 2% | 14% | 9% | 8% | 15% | 4% |
| Cc1cccc(Nc2ccccc2C(=O)O)c1C [Mefenamic acid] | 48% | – | – | – | – | – | – | – | – | 16 ± 8% | 5% | 24% | 17% | 22% | 20% | 6% |
| O=C([O-])c1ccccc1-c1c2cc(Br)c(=O)cc-2oc2[c]([Hg+])c([O-])c(Br)cc12.[Na+].[Na+].[OH-] [Merbromin] | – | 47% | – | – | – | – | – | – | – | – | – | – | – | – | – | – |
| S=c1nc[nH]c2nc[nH]c12 [Mercaptopurine] | 32% | – | – | – | – | – | – | – | – | 13 ± 5% | 5% | 15% | 19% | 15% | 15% | 11% |
| CCCCCCCCCCCCCCCCOP(=O)([O-])OCC[N+](C)(C)C [Miltefosine] | 34% | – | – | – | – | – | – | – | – | 8 ± 4% | 4% | 3% | 11% | 10% | 11% | 11% |
| Cc1nccnc1N1CCCCC1 [Modaline sulfate] | 34% | – | – | – | – | – | – | – | – | 12 ± 3% | 10% | 7% | 12% | 12% | 13% | 17% |
| NCC(O)c1ccc(O)cc1 (centres unmarked) [Octopamine hydrochloride] | 42% | – | – | – | – | – | – | – | – | 11 ± 6% | 1% | 6% | 12% | 9% | 18% | 17% |
| Nc1nc2c(ncn2CCC(CO)CO)c(=O)[nH]1 [Penciclovir] | 45% | – | – | – | – | – | – | – | – | 0% | -11% | 1% | 2% | 3% | 7% | -3% |
